Experimental data: the supplement of paper PMC10307832

Key:
Assay in all cases: relative viability (nuclei count vs DMSO), 5 days (fraction); higher = more cells survive
Doramapimod + Luminespib = compound: Cc1ccc(-n2nc(C(C)(C)C)cc2NC(=O)Nc2ccc(OCCN3CCOCC3)c3ccccc23)cc1 [Doramapimod] + CCNC(=O)c1noc(-c2cc(C(C)C)c(O)cc2O)c1-c1ccc(CN2CCOCC2)cc1 [Luminespib] (partner 0.01 µM)
Outline: (§1)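 For relative viability, nuclei counts in treated wells were divided by those in vehicle wells. Lung cancer cell lines had been pin-tool dosed in 1536-well plates the day after seeding and cultured for 5 days, then fixed and stained in one step (final 0.05% Triton X-100, 1% formaldehyde, 1 ug/ml Hoechst) and imaged at 4×. Doses were one drug alone or a fixed anchor-drug dose plus five library-drug doses (not always all listed) in √10 steps, and values are duplicate-plate medians.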

IPA-3 + Foretinib = compound: C1=CC=C2C(=C1)C=CC(=C2SSC3=C(C=CC4=CC=CC=C43)O)O [IPA-3] + COc1cc2c(Oc3ccc(NC(=O)C4(C(=O)Nc5ccc(F)cc5)CC4)cc3F)ccnc2cc1OCCCN1CCOCC1 [Foretinib] (partner 0.25 µM)
Outline: as §1

Doramapimod + Foretinib = compound: Cc1ccc(-n2nc(C(C)(C)C)cc2NC(=O)Nc2ccc(OCCN3CCOCC3)c3ccccc23)cc1 [Doramapimod] + COc1cc2c(Oc3ccc(NC(=O)C4(C(=O)Nc5ccc(F)cc5)CC4)cc3F)ccnc2cc1OCCCN1CCOCC1 [Foretinib] (partner 0.25 µM)
Outline: as §1

RAF265 + AZD7762 = compound: Cn1c(Nc2ccc(C(F)(F)F)cc2)nc2cc(Oc3ccnc(-c4ncc(C(F)(F)F)[nH]4)c3)ccc21 [RAF265] + NC(=O)Nc1cc(-c2cccc(F)c2)sc1C(=O)N[C@H]1CCCNC1 [AZD7762] (partner 0.2 µM)
Outline: as §1

Row | Cell Line | relative viability (Doramapimod + Luminespib; first compound 0.02 µM) | relative viability (Doramapimod + Luminespib; first compound 0.06325 µM) | relative viability (Doramapimod + Luminespib; first compound 0.2 µM) | relative viability (Doramapimod + Luminespib; first compound 0.6325 µM) | relative viability (Doramapimod + Luminespib; first compound 2 µM) | relative viability (IPA-3 + Foretinib; first compound 0.2 µM) | relative viability (IPA-3 + Foretinib; first compound 0.6325 µM) | relative viability (IPA-3 + Foretinib; first compound 2 µM) | relative viability (IPA-3 + Foretinib; first compound 6.325 µM) | relative viability (IPA-3 + Foretinib; first compound 20 µM) | relative viability (Doramapimod + Foretinib; first compound 0.02 µM) | relative viability (Doramapimod + Foretinib; first compound 0.06325 µM) | relative viability (Doramapimod + Foretinib; first compound 0.2 µM) | relative viability (Doramapimod + Foretinib; first compound 0.6325 µM) | relative viability (Doramapimod + Foretinib; first compound 2 µM) | relative viability (RAF265 + AZD7762; first compound 0.01 µM) | relative viability (RAF265 + AZD7762; first compound 0.03162 µM) | relative viability (RAF265 + AZD7762; first compound 0.1 µM) | relative viability (RAF265 + AZD7762; first compound 0.3162 µM) | relative viability (RAF265 + AZD7762; first compound 1 µM)
1 | CAL-12T | 0.363 | 0.381 | 0.345 | 0.364 | 0.395 | 1.16 | 1.01 | 1.12 | 0.976 | 1.14 | 1.11 | 1.15 | 1.03 | 1.1 | 0.983 | 0.56 | 0.631 | 0.678 | 0.598 | 0.504
2 | NCI-H650 | 0.869 | 0.83 | 0.827 | 0.853 | 0.713 | 1.11 | 0.97 | 1.11 | 1.03 | 1.2 | 1.07 | 1.12 | 1.18 | 1.08 | 1.03 | 0.969 | 0.966 | 0.996 | 0.551 | 0.748
3 | NCI-H1355 | 0.721 | 0.689 | 0.706 | 0.723 | 0.648 | 1 | 0.953 | 1.02 | 0.946 | 1.08 | 0.95 | 0.986 | 0.922 | 0.972 | 0.939 | 0.816 | 0.668 | 0.772 | 0.68 | 0.515
4 | NCI-H838 | 0.406 | 0.372 | 0.245 | 0.347 | 0.268 | 1.22 | 1 | 1.1 | 1.03 | 1.14 | 1.01 | 0.993 | 1.08 | 1.21 | 1.01 | 0.865 | 0.953 | 0.964 | 1.03 | 0.841
5 | LK-2 | 0.219 | 0.202 | 0.177 | 0.158 | 0.169 | 1.25 | 1.31 | 1.3 | 1.63 | 1.5 | 1.04 | 1.04 | 0.919 | 1.05 | 0.925 | 0.506 | 0.432 | 0.537 | 0.448 | 0.371
6 | NCI-H322M | 0.661 | 0.914 | 0.831 | 0.946 | 1.02 | 1.05 | 0.961 | 1.15 | 1.04 | 1.13 | 1.11 | 0.913 | 1.08 | 1.05 | 1.05 | 0.55 | 0.717 | 0.493 | 0.381 | 0.404
7 | NCI-H1395 | 0.621 | 0.605 | 0.641 | 0.79 | 0.679 | 1.07 | 0.901 | 0.98 | 0.934 | 1.02 | 0.948 | 0.925 | 0.991 | 0.991 | 0.933 | 0.403 | 0.382 | 0.422 | 0.419 | 0.393
8 | NCI-H441 | 0.317 | 0.243 | 0.399 |  | 0.298 | 1.14 | 1.2 | 0.79 | 0.837 | 1 | 1.02 | 0.654 | 0.909 |  | 0.842 | 1.1 | 1.08 | 1.2 | 0.967 | 0.936
